Values joined by “and” are separate entries in the source; they are usually repeats but may differ in a detail not shown here. Equal entries are not always repeated.

For data set [1], the system named is lignée de sébocytes humains SEB0662. Kind of data set: MTT cell viability / cytotoxicity test in sebocytes. In kind it is cell-based. The protocol:
(§1) Dans cette étude, on utilise la lignée de sébocytes humains SEB0662.
(§2) Les cellules sont cultivées dans le milieu de culture classique des sébocytes, à 37°C et en présence de 5% de CO2. Les cellules sont utilisées au 7^ème passage.
La sélection des doses d'actifs est réalisée grâce à un test de viabilité cellulaire au MTT. On retient les doses qui permettent de maintenir une viabilité supérieure à 90%.
L'erreur standard de la moyenne (esm) représente l'écart de ln moyenne de l'échantillon par rapport à la moyenne de la population. L'esm est calculée en divisant l'écart-type (Sd) par la racine carrée de la taille de l'échantillon (sqrt(n)). Erreur standard de la moyenne(esm) = écart-type(Sd)/sqrt(n) [formula] Pourcentage de viabilité: viabilité(%) = (DOcomposé/DOtémoin) × 100 [formula] Pourcentage de stimulation: Stimulation(%) = [(Valeur/moyennedutémoin)×100]−100 [formula] Pourcentage de d'inhibition: Inhibition(%) = 100−[(Valeur/moyennedutémoin)×100] [formula]

The subject of another data set is sébocytes SEB0662. Kind of data set: IGF-1 induced lipid synthesis in sebocytes (Bodipy lipid droplet labelling, 14 days). The class given is cell-based, humains. The note with it: 0,001%, IGF-1 20 ng/ml. How it is done: La présente étude vise à étudier l'effet de la DHM et/ou du gluconate de zinc (Zn) sur l'inhibition de la synthèse des lipides, induite par l'ajout d'IGF-1, dans les sébocytes. Cet effet est suivi par marquage, à l'aide d'une sonde lipidique fluorescente couplée au Bodipy®, des sébocytes SEB0662 cultivés en monocouche pendant 14 jours en milieu de différenciation (supplémenté en IGF-1 à 20 ng/ml).
as §1, §2
Pour l'évaluation des actifs, un milieu dit de différenciation (milieu de culture classique supplémenté en dihydrotestostérone, albumine bovine sérique, acide linoléïque, glucose, sérum de veau fœtal, hydrocortisone et agonistes des PPAR (« Peroxysome Proliferator Activated Receptor »)), complémenté en IGF-1 à 20 ng/ml, est utilisé. L'ajout d'IGF-1 stimule la production de lipides par les sébocytes. […]
Les marquages sont quantifiés par mesure de l'intensité de fluorescence de la sonde rapportée au nombre de noyaux identifiés par le Hoechst (intégration des données numériques par le logiciel Developer Toolbox 1 .5, GE Healthcare). […]

Data set [2] deals with collagénase issue de Clostridium histolyticum. In words: Anti-collagenase activity, MMP-1 kit, in tubo fluorescence test. In kind it is biochemical. The source says:
L'activité anti-collagénase est mesurée grâce au kit MMP-1 (Molecular Probes; Réf E12055). Le principe est basé sur la capacité d'une enzyme de la famille des MMP (« Marix Metallo-Proteinase ») zinc-dépendantes, en l'occurrence la collagénase issue de Clostridium histolyticum, à hydrolyser son substrat (collagène-I) pour donner des composés fluorescents mesurables.
En présence d'un inhibiteur, l'action de l'enzyme est altérée empêchant l'hydrolyse de son substrat. La 1,10 phénanthroline est utilisée comme le témoin positif d'inhibition de l'enzyme. La fluorescence émise à 535 nm est mesurée après excitation à 485 nm.
La 1,10-phenanthroline monohydrate (10mM), un inhibiteur connu des MMP fourni dans le kit, est utilisée comme contrôle positif.
Les contrôles négatifs suivants ont été réalisés : • Témoin H2O : ce témoin a été utilisé pour solubiliser la 1-10-phenantroline monohydrate; il représente arbitrairement 100% d'activité de l'enzyme par rapport aux résultats obtenus avec ce contrôle. • Témoin solvant (DMSO 1%) : quantité de solvant inclus dans l'ensemble des actifs et associations à tester; il représente arbitrairement 100% d'activité de l'enzyme par rapport aux résultats obtenus avec les actifs et associations testés.
Le gluconate de zinc a été testé à la concentration de 0,1% (en poids).
La DHM a été testée aux concentrations suivantes : 0,002% et 0,05% (en poids). L'association gluconate de zinc 0,1% + DHM 0,002% a également été testée.
Les analyses quantitatives sont exprimées sous forme de moyenne ± l'écart type. La significativité statistique est déterminée par un test de Student. Les différences sont considérées comme statistiquement significatives entre l'actif testé et son témoin solvant à partir de p<0.05. (NS : […]).

Data set [3] deals with Propionibacterium acnes ATCC 69.19. Kind of data set: Growth inhibition of P. acnes, micromethod of Lens-Lisbonne et al. (MIC). In kind it is cell-based. To be noted: first concentration with growth <= 20 %, 36° C, 3 to 5 days, anaerobic. The text has this:
L'objet de cette étude est d'évaluer l'activité inhibitrice de composés vis-à-vis de la souche Propionibacterium acnes selon les principes de la méthode décrite par Lens-Lisbonne et al. (1987).
La méthode de Lens-Lisbonne et al. permet de tester en milieu liquide le pouvoir antibactérien de substances faiblement solubles et/ou très volatiles, et permet d'éviter les méthodes par diffusion ou en phase vapeur. Brièvement, elle consiste à mettre en présence des volumes égaux de produit à tester et de milieu inoculé, à différentes concentrations. […] L'activité inhibitrice est évaluée à partir des mesures d'absorbance du mélange, comparées aux conditions contrôle. […]
Après incubation de la microplaque pendant une durée définie, la densité optique à 620 nm est mesurée. Les résultats sont exprimés en pourcentage de croissance calculé par rapport à un témoin de croissance et un témoin d'absorbance selon l'équation suivante: Pourcentage de croissance = (DOmesuréeduproduitàlaconcentrationC−DOmesuréedutémoind'absorbanceproduitàlaconcentrationC)/DO mesurée témoin de croissance [formula] […]
Le test est effectué sur microplaque 96 puits. En synthèse, 30 puits sont utilisés pour les témoins d'absorbance; 30 puits sont utilisés pour les essais. […]

Data set [4] in a line: Protection of squalene against oxidation induced by hydrogen peroxide (GC/MS of non-oxidised squalene). To be noted: H2O2 6%, 1 h; for Squalène Moyenne: mean; for Squalène (µg/ml): single trials (Essai). The source says:
L'objectif de ce test est d'évaluer l'inhibition par la DHM de l'oxydation du squalène, induite par le peroxyde d'hydrogène (H2O2). Le Trolox (6-Hydroxy-2,5,7,8-tétraméthylchroman-2-carboxylic acid), un équivalent hydrosoluble de la vitamine E, est un antioxydant connu et est utilisé dans ces tests en tant que témoin positif.
Le squalène (Sigma Aldrich) est dans un premier temps solubilisé dans une chambre réactionnelle.
L'oxydation du squalène est induite par l'ajout d'une solution de peroxyde d'hydrogène (H2O2 à une concentration finale de 6%).
Les actifs devant être évalués sont ajoutés au mélange réactionnel. Ainsi, le Trolox à 0,8% en poids est utilisé comme témoin positif de la protection contre l'oxydation du squalène.
Un contrôle positif, correspondant au squalène incubé en présence d'H2O2, et un contrôle négatif, correspondant au squalène non exposé à l'H2O2, sont également réalisés.
Le mélange obtenu est mis sous agitation pendant une heure, à température ambiante et à l'abri de la lumière.
Le squalène est ensuite extrait du milieu réactionnel à l'aide d'une extraction liquide/liquide. Après évaporation de la solution organique, le résidu est solubilisé dans une solution de chloroforme et le squalène est analysé par une méthode de chromatographie GC/MS.
La mesure de la concentration en squalène permet d'estimer la quantité de squalène ayant été oxydée au cours de la réaction. En effet et selon la technique de mesure utilisée, seule la forme non oxydée est détectée.

gluconate de zinc [reference compound]: in data set [1] (0,001%), the cytotoxicité entry is given as “ne présente pas de cytotoxicité”. Also, the “inhibition de la synthèse des lipides induite par l'IGF-1” value with sébocytes SEB0662 is on record as roughly 15%. Further, the “inhibition de l'activité collagénase” value in data set [2] (0,1% en poids, versus DMSO 1% control) was 80,2%. The “CMI microméthode (%-m/v)” value in data set [3] (Test 1) and in data set [3] (Test 2) was 0,05 %-m/v in each case.

Consider `Cc1c(C)c2c(c(C)c1O)CCC(C)(C(=O)O)O2` (stereo not drawn) [Trolox, 6-Hydroxy-2,5,7,8-tétraméthylchroman-2-carboxylic acid, reference compound], for which, in data set [4] (0,8 % en poids), the “Indice de protection (%)” value is 42,94%; the “Squalène Moyenne” value was 31,85 µg/ml; the “Squalène (µg/ml)” value is 31,41 µg/ml and 31,88 µg/ml and 32,25 µg/ml and 34,60 µg/ml and 32,49 µg/ml.

Consider `O.c1cnc2c(c1)ccc1cccnc12` [1-10-phénanthroline monohydrate, 1,10-phenanthroline monohydrate, reference compound], for which the “inhibition de l'activité collagénase” value in data set [2] (10mM, versus H2O control) is on record as 79,6%.

For `O=C1c2c(O)cc(O)cc2O[C@H](c2cc(O)c(O)c(O)c2)[C@H]1O` [DHM, (2R,3R)-3,5,7-trihydroxy-2-(3,4,5-trihydroxyphenyl)-2,3-dihydrochromen-4-one], the results for the “Indice de protection (%)” value in data set [4] (0,01 % en poids), in data set [4] (0,05 % en poids) and in data set [4] (0,005 % en poids) were 35,19%, 45,28% and 28,64%, respectively. Besides, the figures for the “Squalène Moyenne” value in data set [4] (0,01 % en poids), in data set [4] (0,05 % en poids) and in data set [4] (0,005 % en poids) were 26,10 µg/ml, 33,58 µg/ml and 21,24 µg/ml, respectively. For the same molecule, the “Squalène (µg/ml)” value in data set [4] (0,01 % en poids) is 27,01 µg/ml and 24,86 µg/ml and 26,42 µg/ml; in data set [4] (0,05 % en poids), 34,44 µg/ml and 32,88 µg/ml and 33,41 µg/ml; in data set [4] (0,005 % en poids), 19,84 µg/ml and 21,37 µg/ml and 22,51 µg/ml. Further, the effet cytotoxique result in data set [1] (tested up to 0,003%) is reported as “ne montre pas d'effet cytotoxique”. Also, the “inhibition de l'activité collagénase” value in data set [2] (0,05% en poids, versus DMSO 1% control) is on record as 30,1%; in data set [2] (0,002% en poids, versus DMSO 1% control), 3,5%.

(Values after patent publication EP3364964B1, “COMPOSITION BASED ON DIHYDROMYRICETIN AND A ZINC SALT FOR THE TREATMENT OF ACNE AND OILY SKIN” (Thorel, Jean-Noël, priority 2015, dated 2017).)
